Entries after “also recorded” stand apart in the source; their conditions may differ.
Assays:
[1] = Animal case study: antibiotic treatment of a cat; assay type: in vivo; settings: domestic cat with a scratch to the eye; 30 days of treatment
Method: A domestic cat was given a mixture of antibiotics as eye drops in response to a scratch to the eye. […] Previously the cat had never been given milk (as many animals are allergic to cow's milk). The cat was now given full cream milk as part of a regimen to promote weight gain (the cat also continued to eat its usual amount of daily cat food throughout the period of weight loss). Initially weight was gained but within 24 hours weight loss resumed (presumably because the pathogenic bacteria/viruses had found a way of utilising lactose). An autopsy indicated bone-cancer as cause of death. The body wasting caused by the weight loss was very similar to that observed in early AIDS cases. However the cat had been regularly vaccinated against HTLV 1 through its 16 year life (and had never been ill in that period).

M. flavus = assay: Electron microscopy of M. flavus treated with Znbacitracin; assay type: cell-based, Micrococcus flavus; settings: even at 0.05 µg/ml (0.25 x MIC)
Excerpt: No differences could be observed between fresh and frozen cells treated with antibiotic, which is as expected since no observable damage had occurred to the bacterial cells during freezing/thawing.

B. pumilus = assay: MIC determination against B. pumilus; assay type: cell-based, Bacillus pumilus; settings: as printed in table heads
Method: (§1) However when the concentration of organisms was 5.1 x 10^6 cfu/ml which was the inoculum used in the microcalorimetric incubations the MIC was increased to 2 µg/ml; the effect was also bacteriostatic.

Micrococcus flavus [2] = assay: Flow microcalorimetry (p-t curves) of growing Micrococcus flavus; assay type: cell-based
Excerpt: (§2) • a) For B. pumilus a simple glucose/salts medium was employed with a glucose concentration of 0.1 % w/v. • b) For Bord. bronch. The above salts medium was used with the addition of nicotinic acid, methionine and glutamic acid. Glutamic acid was used at a concentration of 0.2% w/v. • c) For M. flavus a semidefined medium was employed, using the same salts as a B. pumilus but also Na-citrate, biotin and protease peptone. In the calorimeter a concentration of 0.4% protease peptone was used. All medium constituents (except protease) were analytical reagents. The calorimetric medium was therefore a final concentration of 100ml of either solution a, b or c freshly autoclaved for 15 mins exactly at 121°C, 151b/sq inch. Glucose was added to the appropriate solution after autoclaving.
(§3) To the vertical face of the vessel close to its base, equidistantly spaced around the circumference, ports were fitted for an oxygen electrode and for sampling/inoculation. The fermenter was closed with a flat flanged glass lid which had five ports accommodating respectively, gas inlet tube, gas exhaust (via air condenser), inlet and outlet flow-lines to and from the calorimeter. The fermenter and lid was sealed with a p.t.f.e. gasket and clamped with a metal clip. The fermenter was placed on a magnetic stirring unit in a water jacket which allowed circulation of the thermostatically controlled water at 30°C or 37°C. The fermenter which contained a Teflon coated magnetic stirring bar, was sterilised by autoclaving.
(§4) For a typical calorimetric incubation the medium was passed through the calorimetric vessel at the same flow rate and temperature as those used in the experiment to establish a steady baseline deflection. The following operations then took place to a strict timetable. The liquid nitrogen stored ampoule was thawed at 38°C for 3 min and then stirred for 20 sec on a whirlimixer. The bacterial suspension (0.5-1.5ml) volumes was inoculated into the medium (100ml) two minutes after completion of thawing. A Gilson automatic pipette was used for inoculation. The calorimeter inlet flow-line was placed in the incubation medium 30 seconds after inoculation. The flowing incubation medium reached the calorimetric vessel two min after inlet flow-line insertion. At this time the recording of the p-t curves was started. Eight min after inoculation the outflow from the calorimeter was returned to the fermenter (after the "baseline" medium had run to waste but before the inoculated medium ran to waste) thus making a closed system. Aeration was started as soon as the inlet tube was inserted in the fermenter. Microbiological purity of the culture was checked by plating out a sample of the culture at the end of each incubation on nutrient agar (lab M).
(§5) The output of calorimetric experiments is a plot of power (energy evolution per unit of time) as a function of time. The unit of power (p) is the Watt (W) and the unit of time is the hour (h). In some experiments seconds (s) were used as time unit.
This point occurred at an increase in deflection of 29.5% from the baseline value.

[3] = tested on: Bordetella Bronchiseptica; assay: MIC / MBC against Bordetella bronchiseptica; assay type: cell-based; settings: as printed in table heads
E. coli [4] = assay: MIC / MBC against E. coli; assay type: cell-based
E. coli [5] = assay: Electron microscopy of E. coli treated with ZNB; assay type: cell-based; settings: response not lethal for the bacterium; listed as ZNB
[6] = tested on: Bordetella Bronchiseptica; assay: Flow microcalorimetry (p-t curves) of growing Bordetella bronchiseptica; assay type: cell-based
Excerpt: as §2, §3, §4, §5
After successful freezing of Bord. bronch p-t curves for growth in different concentrations of glutamic acid from 0.1%-0.5% were obtained. It was concluded that a medium containing 0.2% glutamic acid would be sufficient for a good deflection in the microcalorimeter minimising the possibility of the bacteria clogging in the microcalorimetric cell or in the teflon tubes leading to and from the microcalorimetric cell. A pH of 7 was used in all the following experiments as this is the optimum pH for polymyxin - lipid binding.
It was of vital importance to maintain a constant oxygen tension; this was achieved by using saturation concentrations of oxygen. It was decided to use the height of the small peak as full scale deflection for the antibiotic assay as the increase in power was exponential up to this point and the peak occurred at a convenient time. This choice of assay point was empirical. The inoculum was 1.1 ± 0.06 x 10^8 cfu/ml for all the microclalorimetric incubations. […]

respiring E.coli = assay: Microcalorimetry of respiring E. coli in glucose buffer; assay type: cell-based; settings: for response on addition to respiring E.coli: highest concentration added 300µg/ml
Method: E.coli was suspended in 10% DMSO prior to freezing and the viable counts were for batch 1: pre-freeze: 4.0 ± 0.6_ x 10^10 cfu/ml and post -freeze 2.0 ± 0.44 x 10^10 cfu/ml and for batch 2: pre-freeze: 3.45 ± 0.58 x 10^10 cfu/ml and post-freeze 2.93 ± 0.43 x 10^10 cfu/ml. The freezing rate for both batches was 20°C/min the survival rate was 50% for batch 1 and 85% for batch 2. These differences may have been due to batch 1 being kept for 24h at 4°C before being frozen.
The respiration experiments were carried out in glucose buffer at different pH. The respiration curves obtained from batch 1 (inoculum 2 x 10^10 cfu/ml) and batch 2 Inoculum 3.2 x 10^10 cfu/ml) were essentially similar and a mean was used as a reference). The respiration experiments were carried out at pH 7 for polymyxin and Znbacitracin and at pH 8 for neomycin. No differences in p-t control curves could be observed at pH 7 or pH 8.
The p-t curves rose and reached a plateau as has been observed for respiration of yeasts and some 20 min later fell to a lower plateau value. Prior incubation of the cells in the buffered glucose for periods up to 20 min before presentation to the calorimeter could reduce or entirely remove this effect.

Bacillus pumilus = assay: Flow microcalorimetry (p-t curves) of growing Bacillus pumilus; assay type: cell-based; settings: ZNB 20 ug/ml; pH 8.00
Excerpt: as §2, §3, §4, §5, §1

Micrococcus flavus [7] = assay: MIC / MBC against Micrococcus flavus; assay type: cell-based
[8] = 0.02 ug/ml added at 50 % of p-t curve
[9] = 0.6-1 ug/ml added at 0 % of p-t curve

CN[C@H](CC(C)C)C(=O)N[C@H]1C(=O)N[C@@H](CC(N)=O)C(=O)N[C@H]2C(=O)N[C@H]3C(=O)N[C@H](C(=O)N[C@H](C(=O)O)c4cc(O)cc(O)c4-c4cc3ccc4O)[C@H](O)c3ccc(c(Cl)c3)Oc3cc2cc(c3O[C@@H]2O[C@H](CO)[C@@H](O)[C@H](O)[C@H]2O[C@H]2C[C@](C)(N)[C@H](O)[C@H](C)O2)Oc2ccc(cc2Cl)[C@H]1O [vancomycin]
effect on the eye [1]: without any effect to the eye

Znbacitracin
effect on the cell surface (electron micrographs) (M. flavus): Protrusions on the cell wall can be observed
MIC (B. pumilus): 20 µg/mL
concentrations at which no further response could be recorded (Micrococcus flavus [2]): higher than 4 µg/ml
concentrations at which no variation in p-t curves could be observed (Micrococcus flavus [2]): lower than 0.02 µg/ml
Comments (Micrococcus flavus [2]; [8]): No inhibition observed
Observed effect on p-t curves (Micrococcus flavus [2]; [8]): Standard growth curve
appearance of p-t curves (Micrococcus flavus [2]; 0.02-0.8 µg/ml (0.1 x MIC-4 x MIC)): a power plateau immediately after addition of the antibiotic for varying periods of time and then an increase in power followed by a further small peak
Peak of growth curve later than standard curve (Micrococcus flavus [2]; 0.1-1 ug/ml added at 50 % of p-t curve): Peak of growth curve occurs 60 min later than standard curve
Observed effect on p-t curves (Micrococcus flavus [2]; 0.1-1 ug/ml added at 50 % of p-t curve, CV 1.8%): Linear log dose response curve 2 hours after addition of antibiotic CV 1.8%
Comments (Micrococcus flavus [2]; 0.2-0.3 ug/ml added at 0 % of p-t curve): Initial growth promoting effect - delayed peak after 9 hours
Observed effect on p-t curves (Micrococcus flavus [2]; 0.2-0.3 ug/ml added at 0 % of p-t curve, CV 2.3%, n=10): 1.4 standard curve CV =2.3% , n=10
Comments (Micrococcus flavus [2]; [9]): Bacteriocidal effect confirmed all bacteria are dead
Observed effect on p-t curves (Micrococcus flavus [2]; [9]): Total inhibition of growth
Observed effect on p-t curves (Micrococcus flavus [2]; 1-4 ug/ml added at 50 % of p-t curve, cv 1.4% n=10): Linear log dose response curve 20 min after addition of antibiotic cv = 1.4% n= 10
appearance of p-t curves (Micrococcus flavus [2]; 5 x MIC - 20 x MIC): held at a plateau for a varying amount of time and then decreased towards a baseline value
largest dose that could be distinguished (Micrococcus flavus [2]; added at 50 % of p-t curve): 4 ug/ml largest dose that could be distinguished any higher dose s gave identical dose response curves
concentration with initial growth promoting effect (Micrococcus flavus [2]; added at inoculum): 0.2 to 0.3 µg/mL
MIC [3]: 100 µg/mL
MBC (E. coli [4]; as printed in table head): > 1000 µg/mL
MIC (E. coli [4]; as printed in table head): > 1000 µg/mL
MIC (E. coli [4]; text): > 1000 µg/mL
effect on bacterial membrane (electron micrographs) (E. coli [5]): protrusions have been observed on the bacterial membrane; also recorded: did actually cause protrusions to occur on the bacterial membrane
effect on growing cultures ([6]; ZNB added to growing cultures (Fig. 17)): a small plateau was reached before growth reoccurred
Observed effect on p-t curves ([6]; single antibiotic at its MIC (0.25ug/ml Neo; 100ug/ml ZNB), added at 50 % of p-t curve): Slightly delayed peak
Comments (respiring E.coli; ZNB 300 ug/ml - 1000 ug/ml): Resistance demonstrated
Observed effect on p-t curves (respiring E.coli; ZNB 300 ug/ml - 1000 ug/ml, pH 7): No response
response on addition to respiring E.coli (respiring E.coli): No response could be observed
response on addition to respiring E.coli (respiring E.coli; listed as ZNB): no effect on power output
Observed effect on p-t curves (Bacillus pumilus): No effect on p-t curve
MBC (Micrococcus flavus [7]; as printed in table head): Ug/ml MIC & MBC 0.2 ug/ml
MIC (Micrococcus flavus [7]; listed as ZNB): 0.2 µg/mL

Source: patent EP1785722A1, “Microbial, viral and mammalian susceptibility to agents that affect cell growth and metabolism, and compatibility of compounds” (Stratos Bio Ltd., priority 2005, dated 2007)
